Data reported in patent US20050009732A1, “Method of treatment and agents useful for same” (Medvet Science Pty Ltd., priority 2003, published 2005).
Starred links: 1 amine or outer side, 2 acyl side, 3 side chain; linkers in the order of their positions; H or OH if unused. Positions of bridges follow the written chain, without caps; N, C: chain ends. Non-standard residues stand in square brackets, D forms with d. Residues, ends and D or L forms follow the SMILES beside them. Chains are numbered I, II in the order given. Actinocin(9to1) = Cc1c2oc3c(C)ccc(C(=O)[*:1])c3nc-2c(C(=O)[*:2])c(N)c1=O; NMeV = CN[C@H](C(=O)O)C(C)C; Sar = CNCC(=O)O

Experiments:
Type in all cases: cell-based, human
[1] = tested on: SK activity in MCF-7 cells; assay: SK activity assay in MCF-7 cells; conditions: for effect on E2-mediated SK activation: pretreatment (ICI 10 μM 1 h; PTX 50 ng/ml 16 h) then 10 nM E2
Experimental: (§1) Briefly, after desired treatments the cells were washed with ice-cold PBS, scraped from the culture dishes and homogenized in lysis buffer containing 20 mM Tris (pH 7.4), 20% glycerol, 1 mM DTT, 1 mM EDTA, 10 μM MgCl2, 1 mM Na3VO4, 15 mM NaF, 10 μg/ml leupeptin and aprotinin, 1 mM PMSF and 0.5 mM 4-deoxypyridoxine. After centrifugation at 13,000×g for 30 min, SK activity was measured by incubating the cytosolic fraction with 5 μM sphingosine dissolved in 0.1% Triton X-100 and [γ^32P]ATP (1 mM, 0.5 mCi/ml) for 30 min at 37° C. as described previously (Pitson et al, 2000, supra; Xia, P., 1998, supra). The enzyme activity was normalized by total protein concentration of each sample.

[2] = tested on: intracellular Ca2+ mobilization in MCF-7 cells; assay: Measurement of [Ca2+]i in Fluo-3 loaded MCF-7 cells; conditions: for effect on E2-induced rise of [Ca2+]i: pretreatment then E2 (DMS 10 μM 30 min; ICI 10 μM; BHQ 100 nM; EGTA 2 mM; 2-APB 75 μM); for effect on [Ca2+]i when added alone: S1P 100 nM, E2-BSA 1 μM
Experimental: The fluorescence of the cells was monitored at an excitation wavelength of 490 nm and an emission wavelength of 525 nm. Each recording was calibrated by determining the maximal uptake of calcium (Fmax) in the presence of 0.1% Triton X as well as the level of autofluorescence (Fmin), after quenching Fluo-3/AM fluorescence with 1 mM Mn2^+.

[3] = tested on: SK activity in MDA-MB-231 cells; assay: SK activity assay in MDA-MB-231 cells; conditions: 10 nM E2, 15 min or 6 hours
Experimental: as §1

[4] = tested on: Erk1/2 phosphorylation in MCF-7 cells; assay: Erk1/2 phosphorylation by Western blotting in MCF-7 cells
Experimental: Cells were harvested and lysed by sonication in lysis buffer containing 50 mM Tris/HCl (pH 7.4), 10% glycerol, 0.5% Triton-X-100, 150 mM NaCl, 1 mM dithiothreitol, 2 mM Na3VO4, 10 mM NaF, 1 mM EDTA and protease inhibitors (Complete; Roche Molecular Biochemicals). Protein concentrations of the cell lysates were determined with a Bio-Rad Dc protein assay kit (Bio-Rad Laboratories, CA). Aliquots of cell lysates containing 30-50 μg of proteins were resolved by 12% SDS-PAGE and transferred to Hybond-P membranes (Amersham Biosciences, Inc.). The membranes were then probed with appropriate antibodies according to standard method as described previously (Pitson, S. M., 2000, supra). The immunocomplexes were detected with an enhanced chemiluminescence PLUS kit (Amersham Pharmacia Biosciences) and by using Typhoon 9410 Variable Mode Imager (Amersham Pharmacia Biotechnologies).

MCF-7 cells [5] = assay: Cell growth assay (MTS) in MCF-7 cells; conditions: 10 nM E2, in the absence of serum
Experimental: To assess cell proliferation, we used the CellTiter 96 AQueous proliferation assay (Promega Corp.) that is based on metabolic conversion of a tetrazolium compound MTS to a colored product by living cells as described in the manufacturer's protocols. Cells (4×10^3 cell/well) were seeded in 4 to 6 replicates into 96-well plates and incubated at 37° C. in 5% CO2 with or without E2 (10 nM) in phenol-red free media for a desired time period. The medium was changed every 2-3 days. The absorbance intensity of the MTS product is directly proportional to the number of viable cells in culture when cell number is between 2000 and 200 000, otherwise the exponential dependence was determined. Total cell numbers were calculated based on calibration curves.

MCF-7 cells [6] = assay: Focus formation assay in MCF-7 cells; conditions: 10 nM E2, 10-day culture
Experimental: MCF-7 cells were seeded into 24-well plastic tissue culture plates at a density of 1×10^5 cells/ml/well, and maintained in phenol-red free media containing 10% FCS until the cells reached confluent. The cells were then refed at 24 h before first treatment with or without 10 nM E2 and then every 2-3 days thereafter with 1% FCS medium. After 5, 10 and 14 days the cultures were photographed and number of foci were counted. For colony assay, cells (1×10^4) suspended in 2 ml of 0.36% agar (Becton Dickinson, Sparks, MD) with phenol-red free growth medium were added on a base layer of 0.72% agar containing culture medium as described previously (Xia, P., Gamble, J. R., Wang, L., Pitson, S. M., Moretti, P. A., Wattenberg, B. W., D'andrea, R. J., and Vadas, M. A. (2000) Curr. Biol., 10: 1527-1530). After 14 days of incubation, the colonies were stained with MTT and counted. All experiments were done at least three times using triplicates per experimental point. Average was assessed by counting the number of colonies under low magnification (×20) at four points on each well.

For pertussis toxin, the “effect on E2-mediated SK activation” value ([1]; MCF-7 cells) was “strongly abrogated”.

With `Cc1c2oc3c(C)ccc(C(=O)N[C@@H]4C(=O)N[C@H](C(C)C)C(=O)N5CCC[C@H]5C(=O)N(C)CC(=O)N(C)[C@@H](C(C)C)C(=O)O[C@@H]4C)c3nc-2c(C(=O)N[C@@H]2C(=O)N[C@H](C(C)C)C(=O)N3CCC[C@H]3C(=O)N(C)CC(=O)N(C)[C@@H](C(C)C)C(=O)O[C@@H]2C)c(N)c1=O` [actinomycin D] (I: T[dV]P[Sar][NMeV] / II: T[dV]P[Sar][NMeV]; ester I:1-I:C, II:1-II:C; linker I:N-II:N via Actinocin(9to1)) the “effect on first peak of E2-induced SK activity” value ([1]; MCF-7 cells, 1 μM actinomycin D pretreatment 4 h, 10 nM E2) was “no overt effect” and the “effect on delayed E2-induced activation of SK” value ([1]; MCF-7 cells, 1 μM actinomycin D, 10 nM E2 prolonged time course) was “abrogated”.

In the case of `NCCOB(c1ccccc1)c1ccccc1` [2-APB, 2-Aminoethoxydiphenyl borate], the “effect on E2-induced rise of [Ca2+]i” value [2] is reported as “unable to effectively abolish”.

With 4-hydroxytamoxifen [OH-Tam] the “effect on E2-induced rise of [Ca2+]i” value [2] was “not prevented”.

In the case of `CC(C)(C)c1cc(O)ccc1O` [BHQ, tert-butylhydroquinone], the “effect on E2-induced rise of [Ca2+]i” value [2] is reported as “strongly reduced”.

For 17β-estrodiol [E2], the “SK activity after additional dose of E2” value ([1]; MCF-7 cells pretreated with E2 for 16 h, pulsed with additional 10 nM E2) was “additive increase”, the “prolonged effect on SK activity” value ([1]; MCF-7 cells, 10 nM E2, after 6 hours, remained more than 24 hours) was “significant increase” and the “maximum SK activity” value ([1]; MCF-7 cells, 10 nM E2, within 15 min) was 240±25 % of basal. For the same molecule, the “concentration at which the E2-induced SK activity reaches a maximum” value ([1]; MCF-7 cells, increasing doses, 15 min) was 1 µM, the SK activity [3] was “No increased activity” and the “time to maximal level of [Ca2+]i” value ([2]; E2 1 nM) was 30 ± 10 s. For the same molecule, the “effect on Erk 1/2 activity” value ([4]; 10 nM E2) was “significant increase”, the “time of maximal Erk 1/2 activity” value ([4]; 10 nM E2, basal levels by 60 min) was at most 15 min and the “effect on cell growth” value (MCF-7 cells [5]) was “stimulated cell growth”. The foci formation (MCF-7 cells [6]) was “able to form solid cell foci”.

For 17β-estrodiol-BSA [E2-BSA], the “effect on [Ca2+]i when added alone” value [2] was “same extent as E2”.

With `CCCCCCCCCCCCC/C=C/[C@@H](O)[C@@H](N)COP(=O)(O)O` [S1P, sphingosine-1-phosphate] the “effect on [Ca2+]i when added alone” value [2] was “resulted in an increase”.

In the case of `C[C@]12CC[C@@H]3c4ccc(O)cc4C[C@@H](CCCCCCCCC[S+]([O-])CCCC(F)(F)C(F)(F)F)[C@H]3[C@@H]1CC[C@@H]2O` (stereo partly drawn) [ICI 182,780], the “effect on E2-mediated SK activation” value ([1]; MCF-7 cells) is reported as “no influence” and the “effect on E2-induced rise of [Ca2+]i” value [2] is reported as “not prevented”.

For `O=C(O)CN(CCOCCOCCN(CC(=O)O)CC(=O)O)CC(=O)O` [EGTA], the “effect on E2-induced rise of [Ca2+]i” value [2] was “slightly decreased”.

For `CC/C(=C(\c1ccccc1)c1ccc(OCCN(C)C)cc1)c1ccccc1` [Tamoxifen], the “effect on E2-mediated SK activation” value ([1]; MCF-7 cells) was “no influence”.

`CCCCCCCCCCCCCC(=O)O[C@@H]1[C@@H](C)[C@@]2(O)[C@@H](C=C(CO)C[C@]3(O)C(=O)C(C)=C[C@@H]23)[C@@H]2C(C)(C)[C@]12OC(C)=O` [PMA, phorbol 12-myristate 13-acetate] was tested, and the “increase in SK activity over basal levels” value ([1]; PMA 100 ng/ml, 30 min, SK and empty-vector transfected MCF-7 cells) was “approximately 2 fold”.

For `COc1cccc(-c2cc(=O)c3ccccc3o2)c1N` [PD098095], the “effect on E2-promoted phosphorylation of Erk1/2” value ([4]; 100 μM pretreatment 30 min, 10 nM E2) was “blocked”.
